# Experimental data published in US10159670B2, “Methods of diagnosing and treating motor neuron diseases and other cellular stress-related diseases” (priority 2012, dated 2018).
# System: Ago2 and Dicer protein interactions
# Assay: Targeted mass spectrometry of Ago2-Flag / Dicer-Flag interactions in HEK293 cells under stress
# Assay type: cell-based
# Details: 0.5 mM, 60 min
# Protocol: (FIG. 9A) The ratio of pre-miRNA to mature miRNA levels in NSC-34 cells, transfected with plasmids as indicated and in cells treated for 72 hrs with carrier alone (water, black) or with cycloheximide (CHX, 0.02 μg/ml, gray). Data normalized to control plasmid transfection. Pre-miRNAs further normalized to Gapdh (for FUS R495X, TDP-43 A315T) or to beta-actin (SOD1 G93A) and miRNA levels normalized to Snord68. Average of three independent experiments except for pre-miRNAs in the study of FUS R495X (n=2). Targeted quantitative mass spectrometry analysis of changes in the binding of Ago2 or Dicer to a set of proteins interactors under stress (FIGS. 9B-E). Immunoprecipitated Ago2-Flag (FIG. 9B) or Dicer-Flag (FIG. 9C) from HEK 293 cells, cultured under basal conditions or treated with sodium arsenite (0.5 mM, 60 min) was subjected to targeted mass-spectrometry analysis. Data is averaged from two or three different peptide standards per protein and normalized to the levels of co-immunoprecipiated peptides from untreated cells. Statistically significant result in a student t-test, between arsenite and control treatment is denoted (*p<0.05). Targeted mass spectrometry of (FIG. 9D) Dicer cofactors or (FIG. 9E) SG components, immunoprecipitated with AGO-Flag in FUS R495X-expressing HEK 293 that were further treated for 72 hrs with carrier alone or Cycloheximide (0.02 μg/ml). (FIG. 9F) The ratio of pre-miRNA to mature miRNA levels in mouse embryonic fibroblasts, pretreated for 5 hrs with HSP90 inhibitors (17-AAG, 1 μM or Geldanamycin, 1 μM) and then incubated for 36 more hours with Thapsigargin (5 nM) in combinations with the respective HSP90 inhibitor. Bars represent the average of three independent experiments. miRNA normalized to the expression levels of Snord70, and pre-miRNA normalized to Gapdh.
# For mass-spectrometry, HEK293 that either stably express Ago2-FLAG (n=3 for each group) or Dicer-Flag transfected cells (48 hrs post-transfection, n=4 for each group) were untreated or stressed with 0.5 mM sodium arsenite for 60 minutes before harvest. IP was performed with the FLAG-IPT1 Kit (Sigma-Aldrich). Negative controls were HEK293 cells not containing a FLAG-construct. Samples containing the eluted proteins and the FLAG peptide were filtered using 3 kDa molecular weight cut-off spin columns (Amicon, Millipore). Buffer was exchanged to 50 mM ammonium bicarbonate (Sigma-Aldrich) in the same step. Proteins were reduced by addition of dithiothreitol (Sigma-Aldrich) to a final concentration of 5 mM and incubation for 30 minutes at 60° C., and alkylated with 10 mM iodoacetamide (Sigma-Aldrich) in the dark for 30 minutes at 21° C. The proteins were then digested using trypsin (Promega; Madison, Wis., USA) at a ratio of 1:50 (w/w trypsin/protein) for 16 hrs at 37° C. […]
structure (smiles),measurement,setting,value
O=[As]O [sodium arsenite],"Ago2 and/or Dicer protein interactions with SG components eiF2S1, eIF3, eIF5a and with PCBP1, PCBP2",,increased Ago2 and/or Dicer protein interactions with SG components
same,increase of Ago2 phosphorylation on serine-387,,more than 10 fold
same,interaction of HSP90 and co-chaperone p23 with Dicer,,increased interaction with Dicer under stress
same,interactions of Ago2 with Dicer,relative to basal conditions,enhanced interactions of Ago2 with Dicer
